This note sets out measurements from patent US20250353891A1 (MEDIMMUNE LIMITED, priority 2022, published 2025).

For experiment [1], the target named is human GLP-1 receptor (hGLP-1R) (Homo sapiens, UniProt P43220). The experiment in a line: cAMP production (HTRF) in CHO cells expressing hGLP-1R. The format is cell-based. Details: expressed in transfected cells. The conditions noted are these: for EC50: cAMP in CHO hGLP-1R cells, geometric mean, read-out: hGLP-1R EC50; for % Relative Potency Ratio: % GLP-1R activity relative to GLP-1 / % GlucR activity relative to glucagon. In a few lines:
(§1)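 Potency values represent EC50 from 4-parameter logistic curves of HTRF % Delta F signal. Receptor-expressing CHO cells (hGCGR 2×10^5 cells/mL, hGLP-1R 1×10^5 cells/mL) were exposed for 30 min at room temperature before two-step cAMP detection.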
(Cyclic AMP is a second messenger, typically raised through Gs and lowered through Gi signalling.)

Experiment [2] addresses human glucagon receptor (hGCGR) (Homo sapiens, UniProt P47871). The experiment in a line: cAMP production (HTRF) in CHO cells expressing hGCGR. The class given is cell-based. Further details: expressed in transfected cells. The conditions noted are these: cAMP in CHO hGCGR cells, geometric mean, read-out: hGluc-R EC50. In a few lines:
as §1

The mark [3] stands for this setting: Table 7, peptides modified at position 20.
Setting [4] is: Table 6, peptides modified at position 17.

Like-named read-outs stand apart in the source and are kept apart here. Starred links: 1 amine or outer side, 2 acyl side, 3 side chain; linkers in the order of their positions; H or OH if unused. Non-standard residues stand in square brackets, D forms with d. Residues, ends and D or L forms follow the SMILES beside them. Groups on a side chain read outwards from the residue. *: point of attachment. C20 diacid = O=C(O)CCCCCCCCCCCCCCCCCCC(=O)*; C18 diacid = O=C(O)CCCCCCCCCCCCCCCCC(=O)*; γGlu = O=C(O)[C@H](CCC(=O)[*:2])N[*:1]; αMeF = C[C@](N)(Cc1ccccc1)C(=O)O; AEEA = NCCOCCOCC(=O)O; Aib = CC(C)(N)C(=O)O

Chain of human glucagon receptor (hGCGR) (P47871 26-477): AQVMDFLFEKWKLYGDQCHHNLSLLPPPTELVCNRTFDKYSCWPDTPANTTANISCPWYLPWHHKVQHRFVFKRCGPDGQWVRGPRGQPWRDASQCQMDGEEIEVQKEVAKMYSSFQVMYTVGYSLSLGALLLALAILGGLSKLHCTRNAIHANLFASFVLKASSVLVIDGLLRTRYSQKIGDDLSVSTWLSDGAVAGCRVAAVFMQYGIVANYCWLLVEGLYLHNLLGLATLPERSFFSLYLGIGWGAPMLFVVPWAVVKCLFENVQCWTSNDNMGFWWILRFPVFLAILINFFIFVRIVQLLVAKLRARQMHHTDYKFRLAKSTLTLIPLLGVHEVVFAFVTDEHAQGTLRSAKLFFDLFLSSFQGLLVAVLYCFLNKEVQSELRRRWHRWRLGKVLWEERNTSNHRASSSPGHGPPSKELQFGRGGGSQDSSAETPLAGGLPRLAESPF
Chain of human GLP-1 receptor (hGLP-1R) (P43220 24-463): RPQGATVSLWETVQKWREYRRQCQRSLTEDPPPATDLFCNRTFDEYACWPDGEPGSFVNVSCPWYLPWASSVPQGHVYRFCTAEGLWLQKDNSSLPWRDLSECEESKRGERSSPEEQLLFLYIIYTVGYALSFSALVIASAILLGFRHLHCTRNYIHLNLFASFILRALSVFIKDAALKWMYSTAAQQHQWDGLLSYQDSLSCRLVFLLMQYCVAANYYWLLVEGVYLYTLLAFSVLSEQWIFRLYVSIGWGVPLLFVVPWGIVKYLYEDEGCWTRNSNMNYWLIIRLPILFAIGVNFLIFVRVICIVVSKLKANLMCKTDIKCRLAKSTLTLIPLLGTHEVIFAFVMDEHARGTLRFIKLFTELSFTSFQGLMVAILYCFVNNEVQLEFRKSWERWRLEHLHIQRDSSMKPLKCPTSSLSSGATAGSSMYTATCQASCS

For orientation: EC50 means the concentration that produces a half-maximal response. Regarding `CC[C@H](C)[C@H](NC(=O)[C@H](Cc1c[nH]c2ccccc12)NC(=O)[C@H](CCC(N)=O)NC(=O)[C@@H](NC(=O)[C@H](Cc1ccccc1)NC(=O)[C@H](CC(=O)O)NC(=O)[C@H](CCCCNC(=O)COCCOCCNC(=O)COCCOCCNC(=O)CC[C@H](NC(=O)CCCCCCCCCCCCCCCCC(=O)O)C(=O)O)NC(=O)[C@H](C)NC(=O)[C@H](C)NC(=O)[C@H](CCCNC(=N)N)NC(=O)[C@H](CO)NC(=O)[C@H](CC(=O)O)NC(=O)[C@H](CC(C)C)NC(=O)[C@H](Cc1ccc(O)cc1)NC(=O)[C@H](CCCCN)NC(=O)[C@H](CO)NC(=O)[C@@H](NC(=O)[C@H](CC(=O)O)NC(=O)[C@H](CO)NC(=O)[C@@H](NC(=O)[C@](C)(Cc1ccccc1)NC(=O)[C@H](CO)NC(=O)CNC(=O)[C@H](Cc1c[nH]cn1)NC(=O)C(C)(C)NC(=O)[C@@H](N)Cc1c[nH]cn1)[C@@H](C)O)C(C)C)C(C)C)C(=O)N[C@@H](C)C(=O)N[C@@H](CC(N)=O)C(=O)N[C@H](C(N)=O)[C@@H](C)O` [Peptide 292] (H-H[Aib]HGS[αMeF]TSDVSKYLDSRAAK([AEEA-AEEA-γGlu-C18 diacid])DFVQWIANT-NH2), the figures for the EC50 in experiment [1] (setting [3]) and in experiment [2] (setting [3]) were 0.0287 nM and 0.0204 nM, respectively. Besides, the “% Relative Potency Ratio” value in experiment [1] (Table 7) is given as 1.4.
Take `CC(C)C[C@H](NC(=O)[C@H](Cc1c[nH]c2ccccc12)NC(=O)[C@H](CCC(N)=O)NC(=O)[C@@H](NC(=O)[C@H](Cc1ccccc1)NC(=O)[C@H](CC(=O)O)NC(=O)[C@H](CCC(N)=O)NC(=O)[C@H](C)NC(=O)[C@H](CCCNC(=N)N)NC(=O)[C@H](CCCCNC(=O)COCCOCCNC(=O)COCCOCCNC(=O)CC[C@H](NC(=O)CCCCCCCCCCCCCCCCC(=O)O)C(=O)O)NC(=O)[C@H](CO)NC(=O)[C@H](CC(=O)O)NC(=O)[C@H](CC(C)C)NC(=O)[C@](C)(Cc1ccccc1)NC(=O)[C@H](CCCCN)NC(=O)[C@H](CO)NC(=O)[C@@H](NC(=O)[C@H](CC(=O)O)NC(=O)[C@H](CO)NC(=O)[C@@H](NC(=O)[C@H](Cc1ccccc1)NC(=O)[C@@H](NC(=O)CNC(=O)[C@H](CCC(N)=O)NC(=O)C(C)(C)NC(=O)[C@@H](N)Cc1c[nH]cn1)[C@@H](C)O)[C@@H](C)O)C(C)C)C(C)C)C(=O)N[C@@H](CCC(=O)O)C(=O)NC(C)(C)C(=O)N[C@H](C(=O)O)[C@@H](C)O` [Peptide 33] (H-H[Aib]QGTFTSDVSK[αMeF]LDSK([AEEA-AEEA-γGlu-C18 diacid])RAQDFVQWLE[Aib]T-OH): the values for the EC50 in experiment [1] (setting [4]) and in experiment [2] (setting [4]) were 0.213 nM and 0.548 nM, respectively. Also, the “% Relative Potency Ratio” value in experiment [1] (Table 6) stood at 5.1.
On to `CC[C@H](C)[C@H](NC(=O)[C@H](Cc1c[nH]c2ccccc12)NC(=O)[C@H](CCC(N)=O)NC(=O)[C@@H](NC(=O)[C@](C)(Cc1ccccc1)NC(=O)[C@H](CC(=O)O)NC(=O)[C@H](CCCCNC(=O)COCCOCCNC(=O)COCCOCCNC(=O)CC[C@H](NC(=O)CC[C@H](NC(=O)CCCCCCCCCCCCCCCCCCC(=O)O)C(=O)O)C(=O)O)NC(=O)[C@H](C)NC(=O)[C@H](C)NC(=O)[C@H](CCCNC(=N)N)NC(=O)[C@H](CO)NC(=O)[C@H](CC(=O)O)NC(=O)[C@H](CC(C)C)NC(=O)[C@H](Cc1ccc(O)cc1)NC(=O)[C@H](CCCCN)NC(=O)[C@H](CO)NC(=O)[C@@H](NC(=O)[C@H](CC(=O)O)NC(=O)[C@H](CO)NC(=O)[C@@H](NC(=O)[C@H](Cc1ccccc1)NC(=O)[C@H](CO)NC(=O)CNC(=O)[C@H](Cc1c[nH]cn1)NC(=O)C(C)(C)NC(=O)[C@@H](N)Cc1c[nH]cn1)[C@@H](C)O)C(C)C)C(C)C)C(=O)N[C@@H](C)C(=O)N[C@@H](CC(N)=O)C(=O)N[C@H](C(N)=O)[C@@H](C)O` [Peptide 291] (H-H[Aib]HGSFTSDVSKYLDSRAAK([AEEA-AEEA-γGlu-γGlu-C20 diacid])D[αMeF]VQWIANT-NH2), for which the values for the EC50 in experiment [1] (setting [3]) and in experiment [2] (setting [3]) were 1.51 nM and 0.847 nM, respectively. Also, the “% Relative Potency Ratio” value in experiment [1] (Table 7) is recorded as 1.1.
For the compound `CC(C)C[C@H](NC(=O)[C@H](CC(C)C)NC(=O)[C@H](Cc1c[nH]c2ccccc12)NC(=O)[C@H](CCCNC(=N)N)NC(=O)[C@@H](NC(=O)[C@](C)(Cc1ccccc1)NC(=O)[C@H](CC(=O)O)NC(=O)[C@H](CCC(N)=O)NC(=O)[C@H](C)NC(=O)[C@H](CCCNC(=N)N)NC(=O)[C@H](CCCCNC(=O)COCCOCCNC(=O)COCCOCCNC(=O)CC[C@H](NC(=O)CCCCCCCCCCCCCCCCC(=O)O)C(=O)O)NC(=O)[C@@H](NC(=O)[C@H](CC(=O)O)NC(=O)[C@H](CC(C)C)NC(=O)[C@](C)(Cc1ccccc1)NC(=O)[C@H](CCCCN)NC(=O)[C@H](CO)NC(=O)[C@@H](NC(=O)[C@H](CC(=O)O)NC(=O)[C@H](CO)NC(=O)[C@@H](NC(=O)[C@](C)(Cc1ccccc1)NC(=O)[C@@H](NC(=O)CNC(=O)[C@H](CCC(N)=O)NC(=O)C(C)(C)NC(=O)[C@@H](N)Cc1c[nH]cn1)[C@@H](C)O)[C@@H](C)O)C(C)C)[C@@H](C)O)C(C)C)C(=O)N[C@@H](C)C(=O)NC(C)(C)C(=O)NCC(N)=O` [Peptide 512] (H-H[Aib]QGT[αMeF]TSDVSK[αMeF]LDTK([AEEA-AEEA-γGlu-C18 diacid])RAQD[αMeF]VRWLLA[Aib]G-NH2; N-terminus assumed), the EC50 in experiment [1] (setting [4]) was 0.159 nM; in experiment [2] (setting [4]), 2.31 nM. For the same compound, the “% Relative Potency Ratio” value in experiment [1] (Table 6) was determined as 28.7.
For the compound `CC[C@H](C)[C@H](NC(=O)C(C)(C)NC(=O)[C@H](CCC(N)=O)NC(=O)[C@@H](NC(=O)[C@](C)(Cc1ccccc1)NC(=O)[C@H](CC(=O)O)NC(=O)[C@H](CCCCNC(=O)COCCOCCNC(=O)COCCOCCNC(=O)CC[C@H](NC(=O)CCCCCCCCCCCCCCCCC(=O)O)C(=O)O)NC(=O)[C@H](C)NC(=O)[C@H](C)NC(=O)[C@H](CCCNC(=N)N)NC(=O)[C@H](CO)NC(=O)[C@H](CC(=O)O)NC(=O)[C@H](CC(C)C)NC(=O)[C@](C)(Cc1ccccc1)NC(=O)[C@H](CCCCN)NC(=O)[C@H](CO)NC(=O)[C@@H](NC(=O)[C@H](CC(=O)O)NC(=O)[C@H](CO)NC(=O)[C@@H](NC(=O)[C@](C)(Cc1ccccc1)NC(=O)[C@H](CO)NC(=O)CNC(=O)[C@H](CCC(N)=O)NC(=O)C(C)(C)NC(=O)[C@@H](N)Cc1c[nH]cn1)[C@@H](C)O)C(C)C)C(C)C)C(=O)N[C@@H](C)C(=O)N[C@@H](CC(N)=O)C(=O)N[C@H](C(N)=O)[C@@H](C)O` [Peptide 321] (H-H[Aib]QGS[αMeF]TSDVSK[αMeF]LDSRAAK([AEEA-AEEA-γGlu-C18 diacid])D[αMeF]VQ[Aib]IANT-NH2), the EC50 in experiment [1] (setting [3]) turned out to be 0.0226 nM; in experiment [2] (setting [3]) it was 4.4 nM. In addition, in experiment [1] (Table 7), the “% Relative Potency Ratio” value is given as 384.7.
For `CC[C@H](C)[C@H](NC(=O)[C@H](CC(C)C)NC(=O)[C@H](Cc1c[nH]c2ccccc12)NC(=O)[C@H](CCCNC(=N)N)NC(=O)[C@@H](NC(=O)[C@H](Cc1ccccc1)NC(=O)[C@H](CC(=O)O)NC(=O)[C@H](CCC(N)=O)NC(=O)[C@H](C)NC(=O)[C@H](CCCNC(=N)N)NC(=O)[C@H](CCCCNC(=O)COCCOCCNC(=O)COCCOCCNC(=O)CC[C@H](NC(=O)CCCCCCCCCCCCCCCCC(=O)O)C(=O)O)NC(=O)[C@H](CO)NC(=O)[C@H](CC(=O)O)NC(=O)[C@H](CC(C)C)NC(=O)[C@](C)(Cc1ccccc1)NC(=O)[C@H](CCCCN)NC(=O)[C@H](CO)NC(=O)[C@@H](NC(=O)[C@H](CC(=O)O)NC(=O)[C@H](CO)NC(=O)[C@@H](NC(=O)[C@H](Cc1ccccc1)NC(=O)[C@@H](NC(=O)CNC(=O)[C@H](CCC(N)=O)NC(=O)C(C)(C)NC(=O)[C@@H](N)Cc1c[nH]cn1)[C@@H](C)O)[C@@H](C)O)C(C)C)C(C)C)C(=O)NC(C)(C)C(=O)N[C@@H](CCC(=O)O)C(=O)O` [Peptide 196] (H-H[Aib]QGTFTSDVSK[αMeF]LDSK([AEEA-AEEA-γGlu-C18 diacid])RAQDFVRWLI[Aib]E-OH; N-terminus assumed), the EC50 in experiment [1] (setting [4]) turned out to be 0.027 nM; in experiment [2] (setting [4]), 0.24 nM. Besides, the “% Relative Potency Ratio” value in experiment [1] (Table 6) was 17.6.
As for `CC(C)C[C@H](NC(=O)[C@H](Cc1c[nH]c2ccccc12)NC(=O)[C@H](CCC(N)=O)NC(=O)[C@@H](NC(=O)[C@H](Cc1ccccc1)NC(=O)[C@H](CC(=O)O)NC(=O)[C@H](CCCCNC(=O)COCCOCCNC(=O)COCCOCCNC(=O)CC[C@H](NC(=O)CCCCCCCCCCCCCCCCC(=O)O)C(=O)O)NC(=O)[C@H](C)NC(=O)[C@H](CCCNC(=N)N)NC(=O)[C@H](CCC(=O)O)NC(=O)[C@H](CO)NC(=O)[C@H](CC(=O)O)NC(=O)[C@H](CC(C)C)NC(=O)[C@](C)(Cc1ccccc1)NC(=O)[C@H](CCCCN)NC(=O)[C@H](CO)NC(=O)[C@@H](NC(=O)[C@H](CC(=O)O)NC(=O)[C@H](CO)NC(=O)[C@@H](NC(=O)[C@H](Cc1ccccc1)NC(=O)[C@@H](NC(=O)CNC(=O)[C@H](CCC(N)=O)NC(=O)C(C)(C)NC(=O)[C@@H](N)Cc1c[nH]cn1)[C@@H](C)O)[C@@H](C)O)C(C)C)C(C)C)C(=O)N[C@@H](CCC(=O)O)C(=O)N[C@@H](C)C(=O)NC(C)(C)C(=O)NCC(=O)O` [Peptide 525], the results for the EC50 in experiment [1] (setting [3]) and in experiment [2] (setting [3]) were 0.177 nM and 2.45 nM, respectively. The “% Relative Potency Ratio” value in experiment [1] (Table 7) is 27.4.
